Key:
Molm-13 AML cell line [1] = assay: Combination protocol for measuring apoptosis (cleaved caspase-3), Molm-13; format: cell-based; settings: SGI-110 10 nM daily for three days, isoindolinone 20 nM added on third day, 24 hrs, alone or combined, vehicle control 8.72
Method: (§1) Combination Protocol for Measuring Apoptosis
(§2) SGI-110 was added daily for three days. […] Percentage apoptosis was measured as percentage fluorescent cells with cleaved caspase-3 in a Guava easyCyte HT cytometer (Millipore). Cleaved caspase-3 staining was recorded in the FL1 channel, with unstained and DMSO control wells being used to set the gated stained and unstained cell populations.
(§3) Table 1 summarises the % apoptosis seen in Molm-13, MV-4-11, or ML-2 with the indicated compound treatments.

MV-4-11 AML cell line [2] = assay: Combination protocol for measuring apoptosis (cleaved caspase-3), MV-4-11; format: cell-based; settings: SGI-110 10 nM daily for three days, isoindolinone 20 nM added on third day, 24 hrs, alone or combined, vehicle control 13.69
Method: as §1, §2, §3

ML-2 AML cell line [3] = assay: Combination protocol for measuring apoptosis (cleaved caspase-3), ML-2; format: cell-based; settings: SGI-110 10 nM daily for three days, isoindolinone 100 nM added on third day, 24 hrs, alone or combined, vehicle control 3.32
Method: as §1, §2, §3

Molm-13 AML cell line [4] = assay: Combination protocol for proliferation in dose matrix (Alamar blue), Molm-13; format: cell-based
Method: (§4) Combination Protocol for Proliferation in Dose Matrix
(§5) AML cell lines were seeded onto 96-well tissue culture plates in triplicates at a concentration of 1×10^4 cells/well. […] At the end of compound treatment, 20 μl Alamar blue was added. After further 5-6 hr incubation at 37° C. the plates were read on a Spectramax Gemini reader (Molecular Devices; excitation 535 nm, emission 590 nm).

MV-4-11 AML cell line [5] = assay: Combination protocol for proliferation in dose matrix (Alamar blue), MV-4-11; format: cell-based
Method: as §4, §5

ML-2 AML cell line [6] = assay: Combination protocol for proliferation in dose matrix (Alamar blue), ML-2; format: cell-based
Method: as §4, §5

LINE-1 DNA methylation = LINE-1 DNA methylation in blood samples, repeat dose study; format: in vivo; settings: monkeys; 3 mg/kg subcutaneously 3x weekly; until day 22; p<0.05 vs level prior to initial dosing
[7] = Tolerability of subcutaneous SGI-110 formulation in rabbits; format: in vivo
Method: (§6) The formulation was well-tolerated in the species tested. […] Rabbits tolerated the 5-day regimen well, up to a dose of 1.5 mg/kg/day, which is equivalent to […] in humans, and the weekly regimen up to a dose of 1.5 mg/kg/week for 3 weeks.

[8] = Tolerability of subcutaneous SGI-110 formulation in cynomolgus monkeys; format: in vivo
Method: as §6
(§7) Cynomolgus monkeys tolerated the weekly regimen well, up to a dose of 3.0 mg/kg/week for 3 weeks, which is equivalent to […]. Rats tolerated much higher doses: 30 mg/kg/day over 5 days; and 20 mg/kg twice weekly for 4 weeks.

[9] = Tolerability of subcutaneous SGI-110 formulation in rats; format: in vivo
Method: as §6, §7

[10] = in vivo, sc
[11] = Repeat dose pharmacokinetics in monkeys; settings: monkey, in vivo, sc, 3 mg/kg subcutaneously 3x weekly, day 15
in vivo = settings: monkey, 10 mg/kg
[12] = SGI-110 0 μM + isoindolinone 0.001 μM
[13] = SGI-110 0 μM + isoindolinone 0.003 μM
[14] = SGI-110 0 μM + isoindolinone 0.01 μM
[15] = SGI-110 0 μM + isoindolinone 0.03 μM
[16] = SGI-110 0 μM + isoindolinone 0.1 μM
[17] = SGI-110 0 μM + isoindolinone 0.3 μM
[18] = SGI-110 0 μM + isoindolinone 1 μM
[19] = SGI-110 0 μM + isoindolinone 3 μM
[20] = SGI-110 0 μM + isoindolinone 10 μM

CC[C@@](O)(c1cc(F)c2c(c1)C(=O)N([C@H](c1ccc(Cl)cc1)[C@H](C)C(=O)O)[C@@]2(OC)c1ccc(Cl)cc1)C1CCOCC1 [(2S,3S)-3-(4-chlorophenyl)-3-[(1R)-1-(4-chlorophenyl)-7-fluoro-5-[(1S)-1-hydroxy-1-(oxan-4-yl)propyl]-1-methoxy-3-oxo-2,3-dihydro-1H-isoindol-2-yl]-2-methylpropanoic Acid]
% Apoptosis (Molm-13 AML cell line [1]): 32.48%
% Apoptosis (MV-4-11 AML cell line [2]): 30.83%
% Apoptosis (ML-2 AML cell line [3]): 15.15%
Percentage viability relative to DMSO control (Molm-13 AML cell line [4]; [12]): 98%
Percentage viability relative to DMSO control (Molm-13 AML cell line [4]; [13]): 99%
Percentage viability relative to DMSO control (Molm-13 AML cell line [4]; [14]): 84%
Percentage viability relative to DMSO control (Molm-13 AML cell line [4]; [15]): 52%
Percentage viability relative to DMSO control (Molm-13 AML cell line [4]; [16]): 37%
Percentage viability relative to DMSO control (Molm-13 AML cell line [4]; [17]): 27%
Percentage viability relative to DMSO control (Molm-13 AML cell line [4]; [18]): 24%
Percentage viability relative to DMSO control (Molm-13 AML cell line [4]; [19]): 22%
Percentage viability relative to DMSO control (Molm-13 AML cell line [4]; [20]): 15%
Percentage viability relative to DMSO control (MV-4-11 AML cell line [5]; [12]): 92%
Percentage viability relative to DMSO control (MV-4-11 AML cell line [5]; [13]): 82%
Percentage viability relative to DMSO control (MV-4-11 AML cell line [5]; [14]): 70%
Percentage viability relative to DMSO control (MV-4-11 AML cell line [5]; [15]): 54%
Percentage viability relative to DMSO control (MV-4-11 AML cell line [5]; [16]): 29%
Percentage viability relative to DMSO control (MV-4-11 AML cell line [5]; [17]): 16%
Percentage viability relative to DMSO control (MV-4-11 AML cell line [5]; [18]): 13%
Percentage viability relative to DMSO control (MV-4-11 AML cell line [5]; [19]): 13%
Percentage viability relative to DMSO control (MV-4-11 AML cell line [5]; [20]): 12%
Percentage viability relative to DMSO control (ML-2 AML cell line [6]; [12]): 100%
Percentage viability relative to DMSO control (ML-2 AML cell line [6]; [13]): 94%
Percentage viability relative to DMSO control (ML-2 AML cell line [6]; [14]): 78%
Percentage viability relative to DMSO control (ML-2 AML cell line [6]; [15]): 59%
Percentage viability relative to DMSO control (ML-2 AML cell line [6]; [16]): 47%
Percentage viability relative to DMSO control (ML-2 AML cell line [6]; [17]): 30%
Percentage viability relative to DMSO control (ML-2 AML cell line [6]; [18]): 16%
Percentage viability relative to DMSO control (ML-2 AML cell line [6]; [19]): 15%
Percentage viability relative to DMSO control (ML-2 AML cell line [6]; [20]): 9%

Nc1ncn([C@H]2C[C@H](OP(=O)(O)OC[C@H]3O[C@@H](n4cnc5c(=O)[nH]c(N)nc54)C[C@@H]3O)[C@@H](CO)O2)c(=O)n1 [SGI-110, 2′-deoxy-5-azacytidylyl-(3′5′)-2′-deoxy-guanosine]
LINE-1 DNA methylation (LINE-1 DNA methylation): Decreases in LINE-1 DNA methylation
tolerated dose, once daily subcutaneous dose for 5 days ([7]; SGI-110 sodium salt 100 mg/mL in glycol/glycerin/ethanol (65:25:10)): ≤ 1.5 mg/kg/day
tolerated dose, once weekly subcutaneous regimen ([7]; for 3 weeks): ≤ 1.5 mg/kg/week
tolerated dose, once weekly subcutaneous regimen ([8]; cynomolgus monkeys, for 3 weeks): ≤ 3.0 mg/kg/week
equivalent dose of tolerated weekly regimen dose ([8]; from cynomolgus monkeys 3.0 mg/kg/week): 36 mg/kg/week
tolerated dose, once daily subcutaneous regimen ([9]; over 5 days): 30 mg/kg/day
tolerated dose, twice weekly subcutaneous regimen ([9]; twice weekly for 4 weeks): 20 mg/kg
% Apoptosis (Molm-13 AML cell line [1]): 36.08%
% Apoptosis (MV-4-11 AML cell line [2]): 26.12%
% Apoptosis (ML-2 AML cell line [3]): 3.93%
myelosuppression and recovery [10]: less myelosuppression and faster recovery

Nc1ncn([C@H]2CC(OP(=O)(O)OC[C@H]3O[C@@H](n4cnc5c(=O)[nH]c(N)nc54)CC3O)[C@@H](CO)O2)c(=O)n1 (stereo partly shown) [compound 1-1]
AUC at 15 day [11]: 592 ng·h/mL
Cmax at 15 day [11]: 181 ng/mL
AUC (in vivo): 1470 ng·h/mL
Cmax (in vivo): 1130 ng/mL

Nc1ncn([C@H]2C[C@H](O)[C@@H](CO)O2)c(=O)n1 [decitabine, 5-aza-2′-deoxycytidine]
AUC at 15 day [11]: 99 ng·h/mL
Cmax at 15 day [11]: 28 ng/mL
AUC (in vivo): 340 ng·h/mL
Cmax (in vivo): 160 ng/mL

Source: US11236047B2 (ASTEX THERAPEUTICS LIMITED, priority 2017, dated 2022)
